Test results from PubChem BioAssay AID1918994 (Molecular Pharmacology Branch, DTP, NCI, 2023).
pIC50: −log10 of the molar value.

System: 292921-168-R-J2-PDC complex spheroid growth
Assay: Anticancer human tumor 292921-168-R-J2-PDC patient-derived pancreatic carcinoma cell line growth inhibition [AhR]
Details: for pIC50: curve of first compound; for viability, T/C: stronger effect = lower value
How it was run: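 Complex tumor spheroids co-cultured with HUVEC and human MSC stroma; AhR antagonists tested in combination with standard-of-care and investigational agents. Top concentration at or near clinical Cmax (else 10 microM), half-log dilutions; growth expressed as percent test/control.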

[1] = second compound 0.1 µM, first compound 0.0316 µM
[2] = second compound 0.1 µM, first compound 0.1 µM
[3] = second compound 0.1 µM, first compound 0.316 µM
[4] = second compound 0.1 µM, first compound 1 µM
[5] = second compound 0.1 µM, first compound 3.16 µM
[6] = second compound 0.1 µM, first compound 10 µM
[7] = second compound 0.316 µM, first compound 0.0316 µM
[8] = second compound 0.316 µM, first compound 0.1 µM
[9] = second compound 0.316 µM, first compound 0.316 µM
[10] = second compound 0.316 µM, first compound 1 µM
[11] = second compound 0.316 µM, first compound 3.16 µM
[12] = second compound 0.316 µM, first compound 10 µM
[13] = second compound 1 µM, first compound 0.0316 µM
[14] = second compound 1 µM, first compound 0.1 µM
[15] = second compound 1 µM, first compound 0.316 µM
[16] = second compound 1 µM, first compound 1 µM
[17] = second compound 1 µM, first compound 3.16 µM
[18] = second compound 1 µM, first compound 10 µM
[19] = second compound 3.16 µM, first compound 0.0316 µM
[20] = second compound 3.16 µM, first compound 0.1 µM
[21] = second compound 3.16 µM, first compound 0.316 µM
[22] = second compound 3.16 µM, first compound 1 µM
[23] = second compound 3.16 µM, first compound 3.16 µM
[24] = second compound 3.16 µM, first compound 10 µM
[25] = second compound 10 µM, first compound 0.0316 µM
[26] = second compound 10 µM, first compound 0.1 µM
[27] = second compound 10 µM, first compound 0.316 µM
[28] = second compound 10 µM, first compound 1 µM
[29] = second compound 10 µM, first compound 3.16 µM
[30] = second compound 10 µM, first compound 10 µM
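Also: spheroids exposed to compounds for seven days after three days of growth.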

COc1cc(Nc2ncc3c(n2)-c2ccc(Cl)cc2C(c2c(F)cccc2OC)=NC3)ccc1C(=O)O + Cc1cncc(-c2nc(NCCc3c[nH]c4ccccc34)c3ncn(C(C)C)c3n2)c1
pIC50 (second compound 0.1 µM): > 7.50 | pIC50 (second compound 0.316 µM): > 7.50 | pIC50 (second compound 1 µM): > 7.50 | pIC50 (second compound 3.16 µM): > 7.50 | pIC50 (second compound 10 µM): > 7.50 | viability, T/C [1]: 50.6% | viability, T/C [2]: 45% | viability, T/C [3]: 50% | viability, T/C [4]: 45.6% | viability, T/C [5]: 46.1% | viability, T/C [6]: 33.5% | viability, T/C [7]: 49.9% | viability, T/C [8]: 43.3% | viability, T/C [9]: 52% | viability, T/C [10]: 45.9% | viability, T/C [11]: 46.5% | viability, T/C [12]: 33.2% | viability, T/C [13]: 46.7% | viability, T/C [14]: 40.3% | viability, T/C [15]: 47.8% | viability, T/C [16]: 44.3% | viability, T/C [17]: 41.9% | viability, T/C [18]: 30.4% | viability, T/C [19]: 44.6% | viability, T/C [20]: 38.7% | viability, T/C [21]: 42.4% | viability, T/C [22]: 39.3% | viability, T/C [23]: 35.5% | viability, T/C [24]: 28% | viability, T/C [25]: 40.4% | viability, T/C [26]: 35% | viability, T/C [27]: 38.5% | viability, T/C [28]: 35.4% | viability, T/C [29]: 32.4% | viability, T/C [30]: 26.3%

CC1COCCN1c1cc(C2(S(C)(=N)=O)CC2)nc(-c2ccnc3[nH]ccc23)n1 (stereo not given) + Cc1cncc(-c2nc(NCCc3c[nH]c4ccccc34)c3ncn(C(C)C)c3n2)c1
pIC50 (second compound 0.1 µM): 5.44 | pIC50 (second compound 0.316 µM): 5.52 | pIC50 (second compound 1 µM): 5.59 | pIC50 (second compound 3.16 µM): 5.71 | pIC50 (second compound 10 µM): 7.50 | viability, T/C [1]: 89.8% | viability, T/C [2]: 87.6% | viability, T/C [3]: 95.8% | viability, T/C [4]: 76.9% | viability, T/C [5]: 54.2% | viability, T/C [6]: 24.7% | viability, T/C [7]: 86.5% | viability, T/C [8]: 80.5% | viability, T/C [9]: 73.3% | viability, T/C [10]: 80.2% | viability, T/C [11]: 48.6% | viability, T/C [12]: 24.7% | viability, T/C [13]: 77.2% | viability, T/C [14]: 80.6% | viability, T/C [15]: 88.4% | viability, T/C [16]: 70% | viability, T/C [17]: 45.9% | viability, T/C [18]: 24.5% | viability, T/C [19]: 63.3% | viability, T/C [20]: 63.3% | viability, T/C [21]: 66.9% | viability, T/C [22]: 59.6% | viability, T/C [23]: 42.6% | viability, T/C [24]: 25.4% | viability, T/C [25]: 48.6% | viability, T/C [26]: 45.9% | viability, T/C [27]: 50% | viability, T/C [28]: 50.4% | viability, T/C [29]: 38.8% | viability, T/C [30]: 29.4%

Nc1ccccc1NC(=O)c1ccc(CNC(=O)OCc2cccnc2)cc1 + Cc1cncc(-c2nc(NCCc3c[nH]c4ccccc34)c3ncn(C(C)C)c3n2)c1
pIC50 (second compound 0.1 µM): 6.45 | pIC50 (second compound 0.316 µM): 6.62 | pIC50 (second compound 1 µM): 6.60 | pIC50 (second compound 3.16 µM): > 7.50 | pIC50 (second compound 10 µM): > 7.50 | viability, T/C [1]: 75.2% | viability, T/C [2]: 63.8% | viability, T/C [3]: 48.1% | viability, T/C [4]: 40.9% | viability, T/C [5]: 27.9% | viability, T/C [6]: 13.4% | viability, T/C [7]: 68.2% | viability, T/C [8]: 57% | viability, T/C [9]: 49.7% | viability, T/C [10]: 33.6% | viability, T/C [11]: 25.7% | viability, T/C [12]: 11.5% | viability, T/C [13]: 58.4% | viability, T/C [14]: 60.7% | viability, T/C [15]: 45.7% | viability, T/C [16]: 35.9% | viability, T/C [17]: 22.9% | viability, T/C [18]: 11.9% | viability, T/C [19]: 43.5% | viability, T/C [20]: 47.4% | viability, T/C [21]: 39.3% | viability, T/C [22]: 30.5% | viability, T/C [23]: 17.2% | viability, T/C [24]: 10.9% | viability, T/C [25]: 27.8% | viability, T/C [26]: 27.9% | viability, T/C [27]: 22.6% | viability, T/C [28]: 22.4% | viability, T/C [29]: 15.4% | viability, T/C [30]: 7.52%

COc1cccc2c1C(=O)c1c(O)c3c(c(O)c1C2=O)CC(O)(C(=O)CO)CC3OC1CC(N)C(O)C(C)O1 (stereo not given) + Cc1ccccc1N=Nc1ccc(NC(=O)c2ccnn2C)c(C)c1
pIC50 (second compound 0.1 µM): > 7.50 | pIC50 (second compound 0.316 µM): > 7.50 | pIC50 (second compound 1 µM): > 7.50 | pIC50 (second compound 3.16 µM): > 7.50 | pIC50 (second compound 10 µM): > 7.50 | viability, T/C [1]: 24.3% | viability, T/C [2]: 17% | viability, T/C [3]: 5.13% | viability, T/C [4]: 0.17% | viability, T/C [5]: 0.69% | viability, T/C [6]: 1.91% | viability, T/C [7]: 20.1% | viability, T/C [8]: 15.5% | viability, T/C [9]: 4.33% | viability, T/C [10]: 0.12% | viability, T/C [11]: 0.59% | viability, T/C [12]: 2.35% | viability, T/C [13]: 23.3% | viability, T/C [14]: 16.1% | viability, T/C [15]: 2.12% | viability, T/C [16]: 3.61% | viability, T/C [17]: 0.65% | viability, T/C [18]: 5.48% | viability, T/C [19]: 19% | viability, T/C [20]: 13.9% | viability, T/C [21]: 1.59% | viability, T/C [22]: 5.2% | viability, T/C [23]: 0.73% | viability, T/C [24]: 1.88% | viability, T/C [25]: 17.2% | viability, T/C [26]: 12.1% | viability, T/C [27]: 0.42% | viability, T/C [28]: 0.36% | viability, T/C [29]: 1.18% | viability, T/C [30]: 4.37%
